Experiments:
Assay in all cases: cells
Type in all cases: functional, cell-based
Conditions in all cases: Homo sapiens
KURAMOCHI = test system: KURAMOCHI;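 further: growth inhibition of KURAMOCHI cells, read out with a cell viability assay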
Description: SANGER: Inhibition of human KURAMOCHI cell growth in a cell viability assay.

NCI-H69 = test system: NCI-H69;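 further: growth inhibition of the cell line, read out with a cell viability assay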
Description: SANGER: Inhibition of human NCI-H69 cell growth in a cell viability assay.

MEG-01 = test system: MEG-01;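 further: growth inhibition of MEG-01 cells, read out by a cell viability assay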
Description: SANGER: Inhibition of human MEG-01 cell growth in a cell viability assay.

SCH = test system: SCH;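 further: growth inhibition of human SCH cells, read out in a cell viability assay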
Description: SANGER: Inhibition of human SCH cell growth in a cell viability assay.

no-11 = test system: no-11;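 further: growth inhibition of human NO-11 cells, read out with a cell viability assay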
Description: SANGER: Inhibition of human no-11 cell growth in a cell viability assay.

ATN-1 = test system: ATN-1;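 further: growth inhibition of human ATN-1 cells, read out with a cell viability assay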
Description: SANGER: Inhibition of human ATN-1 cell growth in a cell viability assay.

DU-4475 = test system: DU-4475
Description: SANGER: Inhibition of human DU-4475 cell growth in a cell viability assay.

CTB-1 = test system: CTB-1
Description: SANGER: Inhibition of human CTB-1 cell growth in a cell viability assay.

A4-Fuk = test system: A4-Fuk;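 further: growth inhibition of A4-Fuk cells, read out by a cell viability assay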
Description: SANGER: Inhibition of human A4-Fuk cell growth in a cell viability assay.

SW872 = test system: SW872;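 further: growth inhibition of SW872 cells, read out by a viability assay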
Description: SANGER: Inhibition of human SW872 cell growth in a cell viability assay.

U-266 = test system: U-266
Description: SANGER: Inhibition of human U-266 cell growth in a cell viability assay.

KLE = test system: KLE;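 further: growth inhibition of human KLE cells, read out with a cell viability assay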
Description: SANGER: Inhibition of human KLE cell growth in a cell viability assay.

OMC-1 = test system: OMC-1;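 further: growth inhibition of the OMC-1 cell line, measured by a cell viability assay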
Description: SANGER: Inhibition of human OMC-1 cell growth in a cell viability assay.

ONS-76 = test system: ONS-76;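 further: growth inhibition of human ONS-76 cells, read out with a cell viability assay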
Description: SANGER: Inhibition of human ONS-76 cell growth in a cell viability assay.

LAN-6 = test system: LAN-6;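 further: growth inhibition of LAN-6 cells, determined with a cell viability assay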
Description: SANGER: Inhibition of human LAN-6 cell growth in a cell viability assay.

NCI-H209 = test system: NCI-H209;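 further: growth inhibition of human NCI-H209 cells, measured by a cell viability assay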
Description: SANGER: Inhibition of human NCI-H209 cell growth in a cell viability assay.

NCI-H1581 = test system: NCI-H1581;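 further: cell growth inhibition read out by a viability assay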
Description: SANGER: Inhibition of human NCI-H1581 cell growth in a cell viability assay.

LS-1034 = test system: LS-1034
Description: SANGER: Inhibition of human LS-1034 cell growth in a cell viability assay.

JVM-2 = test system: JVM-2;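 further: growth inhibition of JVM-2 cells determined by a cell viability assay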
Description: SANGER: Inhibition of human JVM-2 cell growth in a cell viability assay.

GI-1 = test system: GI-1;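 further: growth inhibition of human GI-1 cells, measured with a cell viability readout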
Description: SANGER: Inhibition of human GI-1 cell growth in a cell viability assay.

SW982 = test system: SW982;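 further: growth inhibition of SW982 cells, read out with a cell viability assay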
Description: SANGER: Inhibition of human SW982 cell growth in a cell viability assay.

LC-2-ad = test system: LC-2-ad;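 further: growth inhibition of human LC-2-ad cells, read out with a cell viability assay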
Description: SANGER: Inhibition of human LC-2-ad cell growth in a cell viability assay.

SK-MEL-1 = test system: SK-MEL-1;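 further: growth inhibition of human SK-MEL-1 cells, read out by a cell viability assay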
Description: SANGER: Inhibition of human SK-MEL-1 cell growth in a cell viability assay.

ACN = test system: ACN;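 further: growth inhibition of the human ACN cell line, read out via cell viability testing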
Description: SANGER: Inhibition of human ACN cell growth in a cell viability assay.

MFH-ino = test system: MFH-ino;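 further: growth inhibition of human MFH-ino cells, read out by a cell viability assay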
Description: SANGER: Inhibition of human MFH-ino cell growth in a cell viability assay.

ES1 = test system: ES1;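 further: growth inhibition of ES1 cells, read out with a cell viability assay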
Description: SANGER: Inhibition of human ES1 cell growth in a cell viability assay.

KM-H2 = test system: KM-H2;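 further: growth inhibition of KM-H2 cells, read out by a cell viability assay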
Description: SANGER: Inhibition of human KM-H2 cell growth in a cell viability assay.

KNS-42 = test system: KNS-42;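 further: growth inhibition of KNS-42 cells, read out with a cell viability assay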
Description: SANGER: Inhibition of human KNS-42 cell growth in a cell viability assay.

EW-16 = test system: EW-16;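 further: growth inhibition of human EW-16 cells, read out as cell viability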
Description: SANGER: Inhibition of human EW-16 cell growth in a cell viability assay.

K5 = test system: K5
Description: SANGER: Inhibition of human K5 cell growth in a cell viability assay.

KINGS-1 = test system: KINGS-1;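 further: cell viability assay measuring suppression of KINGS-1 cell growth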
Description: SANGER: Inhibition of human KINGS-1 cell growth in a cell viability assay.

MMAC-SF = test system: MMAC-SF;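 further: growth inhibition of human MMAC-SF cells, read out with a cell viability assay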
Description: SANGER: Inhibition of human MMAC-SF cell growth in a cell viability assay.

SK-PN-DW = test system: SK-PN-DW;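 further: growth inhibition measured with a viability assay on these cells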
Description: SANGER: Inhibition of human SK-PN-DW cell growth in a cell viability assay.

HT = test system: HT
Description: SANGER: Inhibition of human HT cell growth in a cell viability assay.

SJSA-1 = test system: SJSA-1;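 further: growth inhibition of human SJSA-1 cells, read out through a cell viability measurement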
Description: SANGER: Inhibition of human SJSA-1 cell growth in a cell viability assay.

NTERA-2-cl-D1 = test system: NTERA-2-cl-D1;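 further: inhibition of cell growth, measured with a cell viability assay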
Description: SANGER: Inhibition of human NTERA-S-cl-D1 cell growth in a cell viability assay.

J-RT3-T3-5 = test system: J-RT3-T3-5;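 further: cell viability assay measuring growth inhibition of human J-RT3-T3-5 cells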
Description: SANGER: Inhibition of human J-RT3-T3-5 cell growth in a cell viability assay.

TGBC1TKB = test system: TGBC1TKB;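 further: growth inhibition of TGBC1TKB cells, read out by a cell viability assay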
Description: SANGER: Inhibition of human TGBC1TKB cell growth in a cell viability assay.

COLO-824 = test system: COLO-824
Description: SANGER: Inhibition of human COLO-824 cell growth in a cell viability assay.

697 = test system: 697
Description: SANGER: Inhibition of human 697 cell growth in a cell viability assay.

EC-GI-10 = test system: EC-GI-10
Description: SANGER: Inhibition of human EC-GI-10 cell growth in a cell viability assay.

K562 = test system: K562
Description: SANGER: Inhibition of human K-562 cell growth in a cell viability assay.

GOTO = test system: GOTO;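 further: growth inhibition of GOTO cells, read out by a cell viability assay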
Description: SANGER: Inhibition of human GOTO cell growth in a cell viability assay.

RPMI-8226 = test system: RPMI-8226
Description: SANGER: Inhibition of human RPMI-8226 cell growth in a cell viability assay.

NMC-G1 = test system: NMC-G1;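 further: growth inhibition of the NMC-G1 cell line, measured with a cell viability read-out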
Description: SANGER: Inhibition of human NMC-G1 cell growth in a cell viability assay.

A101D = test system: A101D;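 further: growth inhibition of the cell line, measured with a viability assay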
Description: SANGER: Inhibition of human A101D cell growth in a cell viability assay.

TE-10 = test system: TE-10;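 further: growth inhibition of TE-10 cells, measured by a cell viability assay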
Description: SANGER: Inhibition of human TE-10 cell growth in a cell viability assay.

SK-NEP-1 = test system: SK-NEP-1;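 further: growth inhibition of human SK-NEP-1 cells, read out by a cell viability assay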
Description: SANGER: Inhibition of human SK-NEP-1 cell growth in a cell viability assay.

VA-ES-BJ = test system: VA-ES-BJ;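 further: growth inhibition of the VA-ES-BJ cell line, read out by a cell viability assay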
Description: SANGER: Inhibition of human VA-ES-BJ cell growth in a cell viability assay.

BE-13 = test system: BE-13;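 further: growth inhibition of human BE-13 cells, measured with a cell viability assay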
Description: SANGER: Inhibition of human BE-13 cell growth in a cell viability assay.

NCI-H226 = test system: NCI-H226;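 further: cell viability read-out used to gauge growth inhibition of the cells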
Description: SANGER: Inhibition of human NCI-H226 cell growth in a cell viability assay.

MN-60 = test system: MN-60;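 further: growth inhibition of the MN-60 cell line, determined with a cell viability assay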
Description: SANGER: Inhibition of human MN-60 cell growth in a cell viability assay.

CGTH-W-1 = test system: CGTH-W-1;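 further: growth inhibition of human CGTH-W-1 cells measured by cell viability assay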
Description: SANGER: Inhibition of human CGTH-W-1 cell growth in a cell viability assay.

AM-38 = test system: AM-38;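 further: growth inhibition of AM-38 cells of human origin, read out by a cell viability assay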
Description: SANGER: Inhibition of human AM-38 cell growth in a cell viability assay.

NCI-H1648 = test system: NCI-H1648;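 further: cell viability assay measuring inhibition of NCI-H1648 cell growth, from the Sanger screening data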
Description: SANGER: Inhibition of human NCI-H1648 cell growth in a cell viability assay.

KALS-1 = test system: KALS-1;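 further: growth inhibition of KALS-1 cells, determined with a cell viability assay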
Description: SANGER: Inhibition of human KALS-1 cell growth in a cell viability assay.

SNU-C2B = test system: SNU-C2B;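 further: cell viability readout used to measure compound-driven suppression of SNU-C2B cell proliferation, IC50 marking half-maximal growth inhibition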
Description: SANGER: Inhibition of human SNU-C2B cell growth in a cell viability assay.

8-MG-BA = test system: 8-MG-BA;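 further: growth inhibition of 8-MG-BA cells, read out with a cell viability assay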
Description: SANGER: Inhibition of human 8-MG-BA cell growth in a cell viability assay.

KS-1 = test system: KS-1
Description: SANGER: Inhibition of human KS-1 cell growth in a cell viability assay.

SF-268 = test system: SF-268
Description: SANGER: Inhibition of human SF268 cell growth in a cell viability assay.

CCRF-CEM = test system: CCRF-CEM
Description: SANGER: Inhibition of human CCRF-CEM cell growth in a cell viability assay.

TE-5 = test system: TE-5
Description: SANGER: Inhibition of human TE-5 cell growth in a cell viability assay.

EW-1 = test system: EW-1
Description: SANGER: Inhibition of human EW-1 cell growth in a cell viability assay.

MOLT-16 = test system: MOLT-16
Description: SANGER: Inhibition of human MOLT-16 cell growth in a cell viability assay.

NCI-H1838 = test system: NCI-H1838
Description: SANGER: Inhibition of human NCI-H1838 cell growth in a cell viability assay.

LOX IMVI = test system: LOX IMVI
Description: SANGER: Inhibition of human LOXIMVI cell growth in a cell viability assay.

N#C/C(=C1/Nc2ccccc2S1)c1ccnc(NCCc2cccnc2)n1
IC50 (KURAMOCHI): 3510 nM
IC50 (NCI-H69): > 8000 nM
IC50 (MEG-01): > 8000 nM
IC50 (SCH): > 8000 nM
IC50 (no-11): > 8000 nM
IC50 (ATN-1): > 8000 nM
IC50 (DU-4475): > 8000 nM
IC50 (CTB-1): > 8000 nM
IC50 (A4-Fuk): > 8000 nM
IC50 (SW872): 1320 nM
IC50 (U-266): > 8000 nM
IC50 (KLE): > 8000 nM
IC50 (OMC-1): > 8000 nM
IC50 (ONS-76): > 8000 nM
IC50 (LAN-6): > 8000 nM
IC50 (NCI-H209): > 8000 nM
IC50 (NCI-H1581): > 8000 nM
IC50 (LS-1034): > 8000 nM
IC50 (JVM-2): > 8000 nM
IC50 (GI-1): 3710 nM
IC50 (SW982): 1780 nM
IC50 (LC-2-ad): > 8000 nM
IC50 (SK-MEL-1): > 8000 nM
IC50 (ACN): > 8000 nM
IC50 (MFH-ino): > 8000 nM
IC50 (ES1): > 8000 nM
IC50 (KM-H2): > 8000 nM
IC50 (KNS-42): > 8000 nM
IC50 (EW-16): 5010 nM
IC50 (K5): > 8000 nM
IC50 (KINGS-1): > 8000 nM
IC50 (MMAC-SF): > 8000 nM
IC50 (SK-PN-DW): > 8000 nM
IC50 (HT): > 8000 nM
IC50 (SJSA-1): > 8000 nM
IC50 (NTERA-2-cl-D1): > 8000 nM
IC50 (J-RT3-T3-5): > 8000 nM
IC50 (TGBC1TKB): > 8000 nM
IC50 (COLO-824): > 8000 nM
IC50 697: > 8000 nM
IC50 (EC-GI-10): > 8000 nM
IC50 (K562): > 8000 nM
IC50 (GOTO): > 8000 nM
IC50 (RPMI-8226): > 8000 nM
IC50 (NMC-G1): 6120 nM
IC50 (A101D): 2220 nM
IC50 (TE-10): 2230 nM
IC50 (SK-NEP-1): > 8000 nM
IC50 (VA-ES-BJ): > 8000 nM
IC50 (BE-13): > 8000 nM
IC50 (NCI-H226): > 8000 nM
IC50 (MN-60): > 8000 nM
IC50 (CGTH-W-1): 5540 nM
IC50 (AM-38): > 8000 nM
IC50 (NCI-H1648): > 8000 nM
IC50 (KALS-1): > 8000 nM
IC50 (SNU-C2B): 7850 nM
IC50 (8-MG-BA): 3680 nM
IC50 (KS-1): 6030 nM
IC50 (SF-268): > 8000 nM
IC50 (CCRF-CEM): > 8000 nM
IC50 (TE-5): > 8000 nM
IC50 (EW-1): > 8000 nM
IC50 (MOLT-16): 1380 nM
IC50 (NCI-H1838): > 8000 nM
IC50 (LOX IMVI): > 8000 nM

Cn1c(=O)n(-c2ccc(C(C)(C)C#N)cc2)c2c3cc(-c4cnc5ccccc5c4)ccc3ncc21 [DACTOLISIB]
IC50 (KURAMOCHI): 266 nM
IC50 (NCI-H69): 427 nM
IC50 (MEG-01): 63.5 nM
IC50 (SCH): 67.1 nM
IC50 (no-11): 113 nM
IC50 (ATN-1): 73.9 nM
IC50 (DU-4475): 9.44 nM
IC50 (CTB-1): 24.7 nM
IC50 (A4-Fuk): 46.5 nM
IC50 (SW872): 64.6 nM
IC50 (U-266): 206 nM
IC50 (KLE): 252 nM
IC50 (OMC-1): 100 nM
IC50 (ONS-76): 29.1 nM
IC50 (LAN-6): > 2000 nM
IC50 (NCI-H209): 17.3 nM
IC50 (NCI-H1581): 64 nM
IC50 (LS-1034): 491 nM
IC50 (JVM-2): > 2000 nM
IC50 (GI-1): 60.3 nM
IC50 (SW982): 49.9 nM
IC50 (LC-2-ad): 159 nM
IC50 (SK-MEL-1): > 2000 nM
IC50 (ACN): 81.8 nM
IC50 (ES1): 28.8 nM
IC50 (KM-H2): 171 nM
IC50 (KNS-42): 144 nM
IC50 (EW-16): 18 nM
IC50 (KINGS-1): 82.3 nM
IC50 (SK-PN-DW): 235 nM
IC50 (HT): 41 nM
IC50 (SJSA-1): 38.5 nM
IC50 (NTERA-2-cl-D1): 43 nM
IC50 (J-RT3-T3-5): 23 nM
IC50 (TGBC1TKB): 23.1 nM
IC50 (COLO-824): 689 nM
IC50 697: 17.4 nM
IC50 (K562): > 2000 nM
IC50 (GOTO): 250 nM
IC50 (RPMI-8226): 33.8 nM
IC50 (NMC-G1): 121 nM
IC50 (A101D): 39 nM
IC50 (TE-10): 407 nM
IC50 (SK-NEP-1): 34.2 nM
IC50 (VA-ES-BJ): 17.8 nM
IC50 (BE-13): 31.8 nM
IC50 (NCI-H226): 708 nM
IC50 (MN-60): 38 nM
IC50 (CGTH-W-1): 20.6 nM
IC50 (AM-38): 69.3 nM
IC50 (NCI-H1648): 113 nM
IC50 (KALS-1): 82.5 nM
IC50 (SNU-C2B): 181 nM
IC50 (8-MG-BA): 37.3 nM
IC50 (KS-1): 44.7 nM
IC50 (SF-268): 102 nM
IC50 (CCRF-CEM): > 2000 nM
IC50 (TE-5): 46.8 nM
IC50 (EW-1): 120 nM
IC50 (MOLT-16): 17.2 nM
IC50 (NCI-H1838): 1020 nM
IC50 (LOX IMVI): 15 nM

— ChEMBL document CHEMBL1201861, “Genomics of Drug Sensitity in Cancer screening data, Wellcome Trust Sanger Institute”
